According to ChEMBL document CHEMBL1828508, “Biphenyl-3-yl alkylcarbamates as fatty acid amide hydrolase (FAAH) inhibitors: steric effects of N-alkyl chain on rat plasma and liver stability” (Eur J Med Chem, 2011):

Tests used:
[1] = Chemical stability of the compound in 0.01 M PBS assessed as compound remaining at pH 7.4 by HPLC analysis; conditions: buffer; also: time not given here
Plasma [2] = test: (§1) Metabolic stability of the compound in Wistar rat plasma assessed as half life at 1 uM by RP-HPLC analysis; assay type: ADME, cell-free; conditions: 1 µM
Liver [3] = test: Hydrolytic rate constant, log k of the compound in Wistar rat liver S9 fraction; assay type: ADME, subcellular
Plasma [4] = test: Hydrolytic rate constant, log k of the compound in Wistar rat plasma; assay type: ADME, cell-free
[5] = Chemical stability of the compound in 0.01 M borate buffer assessed as half life at pH 9.0 by HPLC analysis; assay type: physicochemical; conditions: for t1/2: buffer; for half-life: 0.01 M borate buffer
Liver [6] = test: (§2) Metabolic stability of the compound in Wistar rat liver S9 fraction assessed as half life at 1 uM by RP-HPLC analysis; assay type: ADME, subcellular; conditions: s9, 1 µM
[7] = target: T1, Fatty-acid amide hydrolase 1 (Rattus norvegicus, UniProt P97612); test: Displacement of [3H]-anandamide from rat brain FAAH after 30 mins by scintillation counting
T1 sequence (P97612 whole entry): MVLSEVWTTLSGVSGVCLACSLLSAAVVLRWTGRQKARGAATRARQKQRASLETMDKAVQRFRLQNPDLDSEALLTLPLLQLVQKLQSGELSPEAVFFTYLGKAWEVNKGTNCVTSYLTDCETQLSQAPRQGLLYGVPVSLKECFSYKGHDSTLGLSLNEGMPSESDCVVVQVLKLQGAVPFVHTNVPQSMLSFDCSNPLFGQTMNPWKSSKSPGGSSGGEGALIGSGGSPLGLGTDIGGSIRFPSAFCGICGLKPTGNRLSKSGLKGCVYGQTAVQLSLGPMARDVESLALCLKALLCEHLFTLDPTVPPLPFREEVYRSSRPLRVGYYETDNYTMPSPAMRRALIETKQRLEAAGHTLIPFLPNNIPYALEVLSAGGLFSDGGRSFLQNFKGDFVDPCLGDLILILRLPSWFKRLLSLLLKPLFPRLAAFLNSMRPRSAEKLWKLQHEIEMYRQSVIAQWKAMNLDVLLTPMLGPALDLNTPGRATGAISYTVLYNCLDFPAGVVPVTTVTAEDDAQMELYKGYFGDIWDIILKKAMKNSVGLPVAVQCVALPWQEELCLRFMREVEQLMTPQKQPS

[8] = as §1; assay type: ADME, cell-free; conditions: Wistar
[9] = as §2; assay type: ADME, subcellular; conditions: Wistar, liver S9 fraction
Rattus norvegicus = test: In vivo displacement of [3H]-anandamide from rat brain FAAH after 30 mins by scintillation counting; assay type: functional; conditions: read-out: ID50 (the source's name)
[10] = Chemical stability of the compound in 0.01 M borate buffer assessed as half life at 100 nM and pH 9.0 by HPLC analysis; assay type: physicochemical
[11] = Chemical stability of the compound in 0.01 M borate buffer assessed as half life at 300 nM and pH 9.0 by HPLC analysis; assay type: physicochemical
[12] = Chemical stability of the compound in 0.01 M borate buffer assessed as half life at 1 uM and pH 9.0 by HPLC analysis; assay type: physicochemical
[13] = target: T2, Fatty-acid amide hydrolase 1 (Rattus norvegicus) (UniProt P97612); test: Selectivity index, ratio URB524 pIC50 to compound pIC50 for displacement of [3H]-anandamide from rat brain FAAH after 30 mins by scintillation counting
T2 sequence (whole entry): T1 sequence (P97612 whole entry)

[14] = Metabolic stability of the compound in Wistar rat liver S9 fraction at 1 uM measured after 90 mins by RP-HPLC analysis; assay type: ADME, subcellular; conditions: read-out: Stability

In the case of `CC(C)NC(=O)Oc1cccc(-c2ccccc2)c1`, the Stability [1] is reported as 34.6%, the t1/2 (Plasma [2]) is reported as 20 min and the Activity (Liver [3]) is reported as -0.45. It also gave an Activity (Plasma [4]) of -1.46, a t1/2 [5] of 61.8 min and a t1/2 (Liver [6]) of 1.9 min.
In the case of `CNC(=O)Oc1cccc(-c2ccccc2)c1`, the Stability [1] is reported as 33.9%, the t1/2 (Plasma [2]) is reported as 3.8 min and the Activity (Liver [3]) is reported as -1.03. The Activity (Plasma [4]) was -0.74, the t1/2 [5] was 43.8 min and the t1/2 (Liver [6]) was 7.4 min.
Work on `O=C(NCCc1ccccc1)Oc1cccc(-c2ccccc2)c1` yielded a Stability [1] of 34.9%, a t1/2 (Plasma [2]) of 22.1 min and an Activity (Liver [3]) of -0.59. The Activity (Plasma [4]) was -1.5, the t1/2 [5] was 40 min and the t1/2 (Liver [6]) was 2.7 min.
Work on `CCCCNC(=O)Oc1cccc(-c2ccccc2)c1` yielded a Stability [1] of 46.7%, a t1/2 (Plasma [2]) of 21.6 min and an Activity (Liver [3]) of -0.41. It also gave an Activity (Plasma [4]) of -1.49, a t1/2 [5] of 42.9 min and a t1/2 (Liver [6]) of 1.8 min.
`NC(=O)c1cccc(-c2cccc(OC(=O)NCCCCc3ccccc3)c2)c1` showed a Stability [1] of 18.8%, a t1/2 (Plasma [2]) of 4.2 min and a pIC50 [7] of 9.48. It also gave a t1/2 [5] of 30.3 min and a t1/2 (Liver [6]) of 46.9 min.
Compound `NC(=O)c1cccc(-c2cccc(OC(=O)NC3CCCCC3)c2)c1` [URB-597] has a Stability [1] of 40.2%, a half-life at 1 µM [8] of 33 min and a half-life [5] of 33 min. The half-life at 1 µM [9] was 58.7 min.
For `O=C(NCCCCc1ccccc1)Oc1cccc(-c2ccccc2)c1`, the Stability [1] was 35.9%, the t1/2 (Plasma [2]) was 6.6 min and the ED50 (Rattus norvegicus) was 0.96 mg/kg. The Activity (Liver [3]) was -1.44, the half-life at 0.1 µM [10] was 41.7 min and the half-life at 0.3 µM [11] was 42 min. For the same compound, the Activity (Plasma [4]) was -0.98, the half-life at 1 µM [12] was 43.1 min and the Ratio pIC50 [13] was 10. The t1/2 (Liver [6]) was 19.3 min.
`O=C(NCCCCCCc1ccccc1)Oc1cccc(-c2ccccc2)c1` gave a Stability [1] of 61.1%, a t1/2 (Plasma [2]) of 8.4 min and an Activity (Liver [3]) of -1.75. For the same compound, the Activity (Plasma [4]) was -1.08, the t1/2 [5] was 73.8 min and the t1/2 (Liver [6]) was 39.4 min.
In the case of `O=C(NC1CCCC1)Oc1cccc(-c2ccccc2)c1`, the Stability [1] is reported as 34.4%, the t1/2 (Plasma [2]) is reported as 40 min and the Activity (Liver [3]) is reported as -0.56. The Activity (Plasma [4]) was -1.76, the t1/2 [5] was 45.1 min and the t1/2 (Liver [6]) was 2.5 min.
`O=C(NCCCCCCN1CCOCC1)Oc1cccc(-c2ccccc2)c1` gave a Stability [1] of 30.9%, a t1/2 (Plasma [2]) of 8 min and an Activity (Liver [3]) of -1.27. It also gave an Activity (Plasma [4]) of -1.06, a t1/2 [5] of 33.4 min and a t1/2 (Liver [6]) of 13 min.
Work on `NC(=O)c1cccc(-c2cccc(OC(=O)NCc3ccc4ccccc4c3)c2)c1` yielded a Stability [1] of 22.8%, a t1/2 (Plasma [2]) of 5.6 min and a t1/2 [5] of 13.9 min. For the same compound, the t1/2 (Liver [6]) was 39 min.
Work on `O=C(NCc1ccccc1)Oc1cccc(-c2ccccc2)c1` yielded a Stability [1] of 22.7%, a t1/2 (Plasma [2]) of 14.3 min and an Activity (Liver [3]) of -1.19. For the same compound, the Activity (Plasma [4]) was -1.32, the t1/2 [5] was 26.5 min and the t1/2 (Liver [6]) was 10.8 min.
In the case of `O=C(NC1CCCCC1)Oc1cccc(-c2ccccc2)c1`, the Stability [1] is reported as 41.1%, the half-life at 1 µM [8] is reported as 42.7 min and the ED50 (Rattus norvegicus) is reported as 0.81 mg/kg. It also gave an Activity (Liver [3]) of -0.94, a half-life at 0.1 µM [10] of 42.3 min and a half-life at 0.3 µM [11] of 42.7 min. The Activity (Plasma [4]) was -1.79, the half-life at 1 µM [12] was 40.4 min and the half-life [5] was 40.7 min. The half-life at 1 µM [9] was 6 min.
For `O=C(NCC1CCCCC1)Oc1cccc(-c2ccccc2)c1`, the Stability [1] was 65.4%, the t1/2 (Plasma [2]) was 15.3 min and the Activity (Liver [3]) was -1.15. The Activity (Plasma [4]) was -1.35, the t1/2 [5] was 104.8 min and the t1/2 (Liver [6]) was 9.8 min.
Work on `O=C(NC1CCC1)Oc1cccc(-c2ccccc2)c1` yielded a Stability [1] of 22.6%, a t1/2 (Plasma [2]) of 19.9 min and an Activity (Liver [3]) of -0.56. The Activity (Plasma [4]) was -1.46, the t1/2 [5] was 27.5 min and the t1/2 (Liver [6]) was 2.5 min.
Work on `O=C(NC12CC3CC(CC(C3)C1)C2)Oc1cccc(-c2ccccc2)c1` yielded a Stability [1] of 66.7%, a t1/2 (Plasma [2]) of 183.3 min and a half-life at 0.1 µM [10] of 264 min. For the same compound, the half-life at 0.3 µM [11] was 262 min, the remaining at 1.5 h, 1 µM [14] was 99.2% and the Activity (Plasma [4]) was -2.42. For the same compound, the half-life at 1 µM [12] was 266 min.
`O=C(NCc1cccc2ccccc12)Oc1cccc(-c2ccccc2)c1` gave a Stability [1] of 24.8%, a t1/2 (Plasma [2]) of 7.3 min and an Activity (Liver [3]) of -1.83. It also gave an Activity (Plasma [4]) of -1.03, a t1/2 [5] of 38.7 min and a t1/2 (Liver [6]) of 46.8 min.
For `CCCCCCNC(=O)Oc1cccc(-c2ccccc2)c1`, the Stability [1] was 46.7%, the t1/2 (Plasma [2]) was 7.5 min and the Activity (Liver [3]) was -1.06. The Activity (Plasma [4]) was -1.03, the t1/2 [5] was 68.3 min and the t1/2 (Liver [6]) was 8 min.
`O=C(NC1Cc2ccccc2C1)Oc1cccc(-c2ccccc2)c1` gave a Stability [1] of 16.2%, a t1/2 (Plasma [2]) of 16.5 min and an Activity (Liver [3]) of -1.96. It also gave an Activity (Plasma [4]) of -1.38, a t1/2 [5] of 22.4 min and a t1/2 (Liver [6]) of 63.1 min.
Compound `O=C(NCc1ccc2ccccc2c1)Oc1cccc(-c2ccccc2)c1` has a Stability [1] of 18.4%, a t1/2 (Plasma [2]) of 1 min and an Activity (Liver [3]) of -1.6. For the same compound, the Activity (Plasma [4]) was -0.17, the t1/2 [5] was 23.9 min and the t1/2 (Liver [6]) was 27.5 min.
